Read-outs that look alike come from different tables or passages of the source.
Legend:
Dopa response = Dopa response potentiation test; format: in vivo, mice; conditions: for L-DOPA potentiation, 10 mg/kg i.p., 1h / L-DOPA potentiation, 10 mg/kg i.p., 4h: score, pargyline pretreated; for L-DOPA potentiation, 10 mg/kg i.p., 1h: drug 1 h before 1-Dopa 100 mg/kg i.p.; for L-DOPA potentiation, 10 mg/kg i.p., 4h: drug 4 h before 1-Dopa 100 mg/kg i.p.
Protocol: Mice in groups of 3 are pretreated with Pargyline® 40 mg/kg p.o. about 10-16 hours before the test. […] 1-Dopa gives a characteristic syndrome which is scored as follows:
1. piloerection, slight salivation, slight increased motor activity
2. piloerection, salivation, marked increased motor activity and irritability
3. piloerection, profuse salivation, marked irritability and reactivity, jumping, squeaking, fighting.
The control groups are Amitriptyline (20 mg/kg i.p. 4 hours before 1-Dopa) and saline (1 hour before 1-Dopa). […] The test drugs were all tested at 10 mg/kg i.p.

uptake of tritiated 5-HT [1] = test: Inhibition of the uptake of tritiated 5-HT in vitro (midbrain slices); format: biochemical, mice; conditions: for Inhibition (50 %) of uptake in vitro, 5-HT: 5-hydroxytryptamine 10^-7 M
Protocol: (§1) 1. Inhibition of the uptake of tritiated 5-HT in vitro and in vivo
[…] out and sliced and incubated in a mixture consisting of, per 100 mg of brain slices, […] 2 ml of Krebs-Henseleit buffer, pH 7.4. The incubation time was 5 minutes with 5 minutes of preincubation before ^3 H-5-HT was added. The radioactive ^3 H-5-HT taken up in the slices was extracted with ethanol and the amount was determined by liquid scintillation. […] Active uptake is defined as that part of the radioactive uptake which is inhibited by a high concentration of cocaine. All doses were given at least to four animals.

5-HTP response = 5-HTP response potentiation test; format: in vivo, mice; conditions: 0 = without effect; for 5-HTP potentiation, 25 mg/kg i.p., 1h: drug 1 h before 5-HTP; for 5-HTP potentiation, 25 mg/kg i.p., 4h: drug 4 h before 5-HTP
Protocol: 1. 5-HTP response potentiation test
Inhibition of the uptake of 5-HT potentiates the effects of administered 5-hydroxytryptophane (5-HTP) probably by increasing the amount of 5-HT at the receptor.
These small movements are quantitatively measured in an activity box, type Animex, which can distinguish between small and gross movements. The activity is measured during 20 minutes and only in the case the animals have a fullblown syndrome.

uptake of tritiated 5-HT [2] = test: Inhibition of the uptake of tritiated 5-HT in vivo (drug i.p., uptake in midbrain slices); design: species or system mice; conditions: for ED50: Mus musculus, ip, 0.5 h, read-out: Inhibition (50 %) of uptake in vivo, 5-HT (ED50), i.p., half an hour before the animals were killed
Protocol: as §1
The drugs were administered intraperitoneally half an hour before the animals were killed and the midbrain was taken out and sliced and incubated in a mixture consisting of, per 100 mg of brain slices, 0.2 μmole of ^3 H-5-HT and 1 μmole of glucose in 2 ml of Krebs-Henseleit buffer, pH 7.4. The incubation time was 5 minutes with 5 minutes of preincubation before ^3 H-5-HT was added. The radioactive ^3 H-5-HT taken up in the slices was extracted with ethanol and the amount was determined by liquid scintillation. […] Active uptake is defined as that part of the radioactive uptake which is inhibited by a high concentration of cocaine. All doses were given at least to four animals.

[3] = test system: uptake of tritiated noradrenaline; test: Inhibition of the uptake of tritiated noradrenaline in vitro (cortex slices); format: biochemical; conditions: for Inhibition (50 %) of uptake in vitro, NA: dl-noradrenaline 10^-7 M
Protocol: (§2) 2. Inhibition of the uptake of tritiated noradrenaline in vitro and in vivo
(§3) The method is found in European Journal of Pharmacology 2 (1967), 181- 186. The animals were killed half or one hour after the administration of the drugs in vivo (i.p.). The slices, made from cortex, were preincubated for five minutes and incubated with 0.1 μmole per ml of ^3 H-noradrenaline for further five minutes. The incubation mixture consisted of 0.2 μmole of ^3 H-NA and the brain slices in 2 ml of Krebs-Henseleits buffer, pH 7.4. The radioactive ^3 H-NA taken up in the slices was extracted with ethanol and the amount was determined by liquid scintillation. The dose producing 50 percent decrease of the active uptake (ED50) was determined graphically from dose response curves. At least four animals were used at each dose level.
Inhibition (50 %) of uptake
^2) Na = dl-noradrenaline 10^-7 M

mice [4] = test: Anticholinergic effect (mydriasis) in mice; format: in vivo
Protocol: (§4) Acute toxicity, behavior and anticholinergic effect (mydriasis) in mice
(§5) The compounds were given by intravenous route to 3 mice. […] Seizures, gait, sedation and grip strength were recorded. […] PD200 is the dose which increases the pupil by 200%.

Acute toxicity in mice = conditions: mouse, in vivo, iv, within 24 hours
Protocol: as §4, §5

mice [5] = test: Motor activity in mice (exploratory activity, locomotion cage); format: in vivo; conditions: Mus musculus, ip, 1 h, read-out: Motor activity ID50
Protocol: The exploratory activity of mice was recorded in a locomotion cage in which the movements were counted each time the animals cross-circuit an electrical current in the bottom plate. The activity was recorded for ten minutes one hour after the administration of the drug. The animals were tested individually. Groups of six mice were used and the mice were only used once. The activity was expressed in percent of the activity of control groups ran simultaneously.

[6] = test system: uptake of tritiated noradrenaline; test: Inhibition of the uptake of tritiated noradrenaline in vivo (drug i.p., uptake in cortex slices); conditions: for ED50: ip, 1 h, read-out: Inhibition (50 %) of uptake in vivo, NA (ED50), i.p., half or one hour before the animals were killed
Protocol: as §2
as §3, with “The” for “The method is found in European Journal of Pharmacology 2 (1967), 181- 186. The”

[7] = i.p., one hour after administration
[8] = i.v., 10 minutes after injection, dose which increases the pupil by 200%

## CN(C)CCC=C1c2ccccc2CCc2ccccc21 [Amitriptyline, reference compound]
Dopa response; 20 mg/kg i.p. 4 hours before 1-Dopa
  Dopa response score of control: three

## CNC1CCC(c2ccccc2)(c2ccccc2)C1 (stereo not drawn) [PUB 107, 1-methylamino-3,3-diphenylcyclopentane]
Dopa response
  L-DOPA potentiation, 10 mg/kg i.p., 1h: 2
  L-DOPA potentiation, 10 mg/kg i.p., 4h: 2
Uptake of tritiated 5-HT [1]
  Inhibition (50 %) of uptake in vitro, 5-HT: 1 µg/mL
  inhibition of uptake of 5-hydroxytryptamine in vitro, in words: potent inhibitors
5-HTP response
  5-HTP potentiation, 25 mg/kg i.p., 1h: 0
Uptake of tritiated 5-HT [2]
  ED50: > 40 mg/kg
[3]
  Inhibition (50 %) of uptake in vitro, NA: 0.7 µg/mL
  inhibition of uptake of noradrenaline in vitro, in words: potent inhibitors
Mice [4]; mouse, in vivo, iv, 10 min
  Mydriasis PD200: 15 mg/kg
Acute toxicity in mice
  LD50 at 24 h: 30 mg/kg
Mice [5]; [7]
  ED50: > 50 mg/kg
[6]
  ED50: 20 mg/kg

## CN(C)C1CCC(c2ccccc2)(c2ccccc2)C1 (stereo not drawn) [PUB 112, 1-dimethylamino-3,3-diphenylcyclopentane]
Dopa response
  L-DOPA potentiation, 10 mg/kg i.p., 1h: 2.5
  L-DOPA potentiation, 10 mg/kg i.p., 4h: 2
Uptake of tritiated 5-HT [1]
  Inhibition (50 %) of uptake in vitro, 5-HT: 0.7 µg/mL
  inhibition of uptake of 5-hydroxytryptamine in vitro, in words: potent inhibitors
5-HTP response
  5-HTP potentiation, 25 mg/kg i.p., 1h: 25
Uptake of tritiated 5-HT [2]
  ED50: > 40 mg/kg
[3]
  Inhibition (50 %) of uptake in vitro, NA: 0.4 µg/mL
  inhibition of uptake of noradrenaline in vitro, in words: potent inhibitors
Mice [4]; [8]
  Mydriasis PD200: < 1 mg/kg
Acute toxicity in mice
  LD50 at 24 h: 18 mg/kg
Mice [5]
  ED50: > 50 mg/kg
[6]
  ED50: 25 mg/kg

## CN(C)CC1CCC(c2ccccc2)(c2ccccc2)C1 (stereo not drawn) [PUE 117, 1-dimethylaminomethyl-3,3-diphenylcyclopentane]
Dopa response
  L-DOPA potentiation, 10 mg/kg i.p., 1h: 3
  L-DOPA potentiation, 10 mg/kg i.p., 4h: 1.5
Uptake of tritiated 5-HT [1]
  Inhibition (50 %) of uptake in vitro, 5-HT: 3.6 µg/mL
5-HTP response
  5-HTP potentiation, 25 mg/kg i.p., 1h: 0
Uptake of tritiated 5-HT [2]
  ED50: > 40 mg/kg
[3]
  Inhibition (50 %) of uptake in vitro, NA: 2.3 µg/mL
Mice [4]; [8]
  Mydriasis PD200: < 1 mg/kg
Acute toxicity in mice
  LD50 at 24 h: 30 mg/kg
Mice [5]
  ED50: > 50 mg/kg
[6]
  ED50: 17 mg/kg

## NCC1CCC(c2ccccc2)(c2ccccc2)C1 (stereo not drawn) [PUE 119, 1-aminomethyl-3,3-diphenylcyclopentane]
Dopa response
  L-DOPA potentiation, 10 mg/kg i.p., 1h: 1.5
  L-DOPA potentiation, 10 mg/kg i.p., 4h: 1.5
Uptake of tritiated 5-HT [1]
  Inhibition (50 %) of uptake in vitro, 5-HT: 0.34 µg/mL
  inhibition of uptake of 5-hydroxytryptamine in vitro, in words: considerably weaker effect
5-HTP response
  5-HTP potentiation, 25 mg/kg i.p., 1h: 0
  5-HTP potentiation, 25 mg/kg i.p., 4h: 0
Uptake of tritiated 5-HT [2]
  ED50: > 40 mg/kg
[3]
  Inhibition (50 %) of uptake in vitro, NA: 0.025 µg/mL
  inhibition of uptake of noradrenaline in vitro, in words: strongly effective
Mice [4]; [8]
  Mydriasis PD200: 2.5 mg/kg
Acute toxicity in mice
  LD50 at 24 h: 22 mg/kg
Mice [5]
  ED50: > 50 mg/kg
[6]
  inhibition of uptake of noradrenaline in vivo, in words: Strong inhibition of the uptake of noradrenaline only

## CNCC1CCC(c2ccccc2)(c2ccccc2)C1 (stereo not drawn) [PUE 122, 1-methylaminomethyl-3,3-diphenylcyclopentane]
Dopa response
  L-DOPA potentiation, 10 mg/kg i.p., 1h: 3
  L-DOPA potentiation, 10 mg/kg i.p., 4h: 3
Uptake of tritiated 5-HT [1]
  Inhibition (50 %) of uptake in vitro, 5-HT: 4.2 µg/mL
  inhibition of uptake of 5-hydroxytryptamine in vitro, in words: considerably weaker effect
5-HTP response
  5-HTP potentiation, 25 mg/kg i.p., 1h: 0
Uptake of tritiated 5-HT [2]
  ED50: > 40 mg/kg
[3]
  Inhibition (50 %) of uptake in vitro, NA: 0.05 µg/mL
  inhibition of uptake of noradrenaline in vitro, in words: strongly effective
Mice [4]; mouse, in vivo, iv, 10 min
  Mydriasis PD200: > 12.5 mg/kg
Acute toxicity in mice
  LD50 at 24 h: 15 mg/kg
Mice [5]; [7]
  ED50: > 50 mg/kg
[6]
  inhibition of uptake of noradrenaline in vivo, in words: Strong inhibition of the uptake of noradrenaline only
  ED50: 5.5 mg/kg

## CN(C)C1CCC(c2ccccc2)(c2ccc(Cl)cc2)C1 (stereo not drawn) [PUN 123, 1-dimethylamino-3-(4-chlorophenyl)-3-phenylcyclopentane]
Dopa response
  L-DOPA potentiation, 10 mg/kg i.p., 4h: 3
Uptake of tritiated 5-HT [1]
  Inhibition (50 %) of uptake in vitro, 5-HT: 1 µg/mL
  inhibition of uptake of 5-hydroxytryptamine in vitro, in words: potent inhibitors
5-HTP response
  5-HTP potentiation, 25 mg/kg i.p., 1h: 25
  5-HTP potentiation, 25 mg/kg i.p., 4h: 0
Uptake of tritiated 5-HT [2]
  ED50: 40 mg/kg
Uptake of tritiated 5-HT [2]; in vivo
  inhibition of uptake of 5-hydroxytryptamine in vivo, in words: strong inhibition
[3]
  Inhibition (50 %) of uptake in vitro, NA: 1 µg/mL
  inhibition of uptake of noradrenaline in vitro, in words: potent inhibitors
Mice [4]; mouse, in vivo, iv, 10 min
  Mydriasis PD200: < 10 mg/kg
Acute toxicity in mice
  LD50 at 24 h: 30 mg/kg
Mice [5]; [7]
  ED50: > 50 mg/kg
[6]
  inhibition of uptake of noradrenaline in vivo, in words: strong inhibition
  ED50: 30 mg/kg
[6]; uptake inhibition, compared with imipramine
  selectivity towards noradrenaline: substantially nonselective ability towards noradrenaline

## CNC1CCC(c2ccccc2)(c2ccc(Cl)cc2)C1 (stereo not drawn) [PUN 125, 1-methylamino-3-(4-chlorophenyl)-3-phenylcyclopentane]
Dopa response
  L-DOPA potentiation, 10 mg/kg i.p., 1h: 1
  L-DOPA potentiation, 10 mg/kg i.p., 4h: 1
Uptake of tritiated 5-HT [1]
  Inhibition (50 %) of uptake in vitro, 5-HT: 2 µg/mL
5-HTP response
  5-HTP potentiation, 25 mg/kg i.p., 1h: 0
Uptake of tritiated 5-HT [2]
  ED50: > 40 mg/kg
[3]
  Inhibition (50 %) of uptake in vitro, NA: 1 µg/mL
[6]
  ED50: > 40 mg/kg

## COc1ccc(C2(c3ccccc3)CCC(N)C2)cc1 (stereo not drawn) [PUT 104, 1-amino-3-(4-methoxyphenyl)-3-phenylcyclopentane]
Dopa response; printed in the 1h column, head 10 mg/kg i.p.
  L-DOPA potentiation, entry given as a bound (no score): > 10
Uptake of tritiated 5-HT [1]
  Inhibition (50 %) of uptake in vitro, 5-HT: 0.5 µg/mL
  inhibition of uptake of 5-hydroxytryptamine in vitro, in words: potent inhibitors
5-HTP response
  5-HTP potentiation, 25 mg/kg i.p., 1h: > 25
Uptake of tritiated 5-HT [2]
  ED50: > 40 mg/kg
[3]
  Inhibition (50 %) of uptake in vitro, NA: 1 µg/mL
  inhibition of uptake of noradrenaline in vitro, in words: potent inhibitors
Mice [4]; mouse, in vivo, iv, 10 min
  Mydriasis PD200: > 40 mg/kg
Acute toxicity in mice
  LD50 at 24 h: > 40 mg/kg
[6]
  ED50: > 40 mg/kg

From patent publication US4141993A, “Compounds of diphenylcyclopentylamine type and methods for their preparation” (priority 1971, dated 1979)
